87 compounds from a melting point compilation (Tetko et al.; mined from patent text by program, amines drawn as free bases though some values may be those of a salt) can be followed below.

Structures are written as SMILES.

The compound `CC[C@H](C)[C@H](OCc1cccc(F)c1F)[C@H]1[C@H]([N+](=O)[O-])[C@H](c2ccccc2)N[C@@H]1C(=O)NCC(=O)O` yielded a melting point of 137 to 138 °C.

Turning to `CCCCCCCCc1cc(C=O)co1`, the melting point was 25 °C.

Compound `CCOC(=O)CC(=O)CSc1nc2cc(Cl)c(F)cc2c(O)c1C(=O)OCC` gave a melting point of 167 to 170 °C.

`CS(=O)(=O)Nc1ccc(CCN2CCCCC2)cc1` displayed a melting point of 123 to 124 °C.

`O=C1CC(c2cccc(-n3ccnc3)c2)=Nc2ccc(-c3ccccc3)cc2N1` came in with a melting point of 201 to 205 °C.

As for `CCOC(=O)c1cc(-c2csc(-c3ccnc(N)c3)n2)c(=O)[nH]c1C`, the melting point is above 260 °C.

With `C=C1/C(=C\C=C2/CCC[C@@]3(C)[C@H]2CC[C@@H]3[C@]2(C)C[C@H](CC(C)(C)O)CO2)C[C@@H](O)C[C@@H]1O`, the melting point amounted to 128 °C.

Consider `COc1ccccc1Oc1c(NS(=O)(=O)c2ccc(C(C)(C)C)cc2)ncnc1OCCO`, for which the melting point fell in the range of 143 to 148 °C.

Turning to `O=C(O)Cc1c(C(=O)O)c2cc(Oc3ccc(OC(F)(F)F)cc3)ccc2n1-c1ccc(N2CCCCC2)cc1`, the melting point is above 200 °C.

`COC(=O)CC(C#Cc1cccc(-c2nc(C)no2)c1)c1ccc(OC)c(OC2CCCC2)c1` (racemic): the melting point lay in the range of 66 to 68.5 °C.

`O=C(O)Cc1c(C(=O)c2cccc(Cl)c2)[nH]c2ccc(F)cc12` came in with a melting point of 208 to 212 °C.

For `CC(C)c1nc(CN(C)C(=O)N[C@H](C(=O)O)C(C)C)cs1`, the melting point lay within 82.8 to 93.8 °C.

Compound `CC(C)n1nc(-c2cnc(N)nc2-c2cccc(F)c2)ccc1=O` came in with a melting point of 220 to 222 °C.

On to `COC(=O)CNc1cc(-c2c3ccccc3c(Br)c3sc(C)c(C)c23)cc(Br)c1OC`, for which the melting point is 194 to 198 °C.

Compound `N#Cc1ccc(C(O)c2occc(=O)c2OCc2ccccc2)cc1` (configuration not stated) yielded a melting point of 135 to 138 °C.

Compound `O=C(CC1CCCCC1=O)c1ccccc1` (configuration not stated) yielded a melting point of 44 to 45 °C.

`O=C(O)CCCCCCN1C(=O)c2ccccc2C1=O` returned a melting point of 112 to 115 °C.

On to `Cc1ccc(CSC[C@H](NC(=O)C(CS)Cc2ccc(-c3ccccc3)cc2)C(=O)O)cc1` (some centres not stated), for which the melting point was in the range of 131 to 135 °C.

Compound `CCCN(CCC)S(=O)(=O)c1cc(OC)c(OC)cc1C=Cc1nc2c(c(=O)n(CCC)c(=O)n2CCC)n1C` displayed a melting point of 208 °C.

As for `N#Cc1c(-c2ccccc2)cc(-c2ccccc2)nc1N`, the melting point is 170 to 174 °C.

`Clc1ccc(-n2nc3c(c2Br)CCCC3)cc1` registered a melting point of 101 to 102 °C.

Turning to `COc1ccc(-c2nc(COc3ccc(CCCn4ccnc4)cc3)co2)s1`, the melting point was in the range of 96 to 97 °C.

Compound `CS(=O)c1ccc(Oc2ccc([N+](=O)[O-])cc2)cc1` (configuration not stated) showed a melting point of 76 to 78 °C.

Consider `CCCCCCCCCCCCCCCCCCOc1cc(NC(=O)OCc2ccccc2)cc(OC(C)=O)c1`, for which the melting point was 57 to 59 °C.

`CC12CCC3c4ccc(C(=O)O)cc4CCC3C1CCC2C(=O)c1ccc2c(c1)OCO2` (configuration not stated): the melting point lay within 235 to 237 °C.

The compound `COc1ccc(CN2CCC(NC(=O)OC(C)(C)C)CC2)cc1` displayed a melting point of 95 to 97 °C.

As for `CCNc1ncnc2nc(-c3ccncc3)[nH]c12`, the melting point lay in the range of 308 to 310 °C.

As for `Cn1c(CNC[C@H]2CCCO2)cc2cc(NC(=O)c3ccc(OCC4CC4)cc3)ccc21`, the melting point was in the range of 138 to 139 °C.

`COC1(OC)CCN(c2cc3c(cc2F)c(=O)c(C(=O)O)cn3-c2ccc(F)cc2F)C1` had a melting point of 228 to 230 °C.

The compound `Nc1ccc2c(c1)C(=O)N(c1cccc(C(=O)O)c1)C2=O` gave a melting point of 306 to 308 °C.

In the case of `COc1cc(OC)nc(Oc2ccc3ncccc3c2C(=O)O)n1`, the melting point is 195 to 198 °C.

The compound `Cc1ccccc1C(=O)N(C)c1ccc(C(=O)O)cc1` registered a melting point of 187 to 190 °C.

The compound `CCOC(=O)\C=C(C)/C=C/C=C(C)/C=C/C1=C(C)C[C@@H](O)CC1(C)C` registered a melting point of 93 to 95 °C.

`COc1ccc(CNc2nc(SC)ncc2C(O)c2nccn2C)cc1Cl` (configuration not stated) had a melting point of 179 to 180 °C.

`Cc1cccc(C)c1NCC(N)=O` gave a melting point of 89 to 92 °C.

Regarding `CC12CCC3C(CCC4(O)CC(O)CCC34CO)C1(O)CCC2c1ccnnc1` (configuration not stated), the melting point fell in the range of 138 to 140 °C.

Take `N[C@H]1CC[C@H](CC(=O)N2CCN(c3ccccc3)CC2)CC1`: the melting point was in the range of 90 to 93 °C.

As for `COC(=O)Cc1ccc(C(=O)c2ccc(OC)cc2)n1C`, the melting point fell in the range of 104 to 105 °C.

`CC(C)(CCCC(=O)O)c1ccc2c(c1)C(=O)c1cc(C(C)(C)CCCC(=O)O)ccc1C2=O` returned a melting point of 145 to 147 °C.

As for `Oc1ccc2c(-c3cccc4c(O)cccc34)noc2c1`, the melting point was in the range of 258 to 259 °C.

The compound `CC(C)(CO)c1cnc(-c2nn(-c3ccc(F)cc3F)c3c2C2CCC3C2)o1` (configuration not stated) had a melting point of 66 to 68 °C.

`CN(Cc1cccc2c1C(=O)N(C1CCC(=O)NC1=O)C2=O)C(=O)Nc1ccc2ccccc2c1` (configuration not stated) came in with a melting point above 260 °C.

`CCCCNC(=O)NS(=O)(=O)c1cccc2c1OC(C)(C)C2` showed a melting point of 200 to 203 °C.

`CN(c1cccc2cc(C3=NCC(C)(CCO)S3)[nH]c12)S(=O)(=O)c1cccs1` (configuration not stated) came in with a melting point of 149 to 150 °C.

On to `Cc1nc(Cl)c2cc(C)oc2n1`, for which the melting point lay in the range of 47.6 to 48.1 °C.

As for `Cc1cc(C)c(-c2c(O)c(Cl)c(-c3ccc(Cl)cc3)oc2=O)c(C)c1`, the melting point was 229 to 231 °C.

`C=Cc1c(C(=O)OC)cccc1[N+](=O)[O-]` returned a melting point of 44 to 45 °C.

With `CCCC(Cl)(Cl)C(NC(=O)c1ccc(Cl)cc1)NC(=NC#N)Nc1cccnc1` (configuration not stated), the melting point lay in the range of 192 to 193 °C.

`CC(Oc1ccc(-c2ccc(Cl)cc2)cc1)(C(N)=O)C(F)(F)F` (configuration not stated) yielded a melting point of 141 to 142 °C.

As for `O=C1c2ccccc2C(=O)N1CC(=O)N1c2ccccc2N(Cc2ccccc2)C(=O)[C@H]2CCCC[C@H]21` (relative stereo), the melting point was 241 to 242 °C.

For `Cc1nn2c(-c3cccc(C(F)(F)F)c3)ccnc2c1C#N`, the melting point lay in the range of 149 to 150 °C.

`CCCC=NNc1cc2c(nn1)CCN(C(=O)c1ccc(-c3ccccc3)cc1)C2` returned a melting point of 260 to 262 °C.

Compound `CCCC1CCC2c3ccc(OCC)c(F)c3OC2C1` (configuration not stated) had a melting point of 128 °C.

The compound `CCCCCC(=O)C=Cc1ccc(O)c(O)c1` showed a melting point of 130 to 131 °C.

As to `CCCc1c(OCCCSc2nnc(NC(=O)C(=O)OCC)s2)ccc(C(C)=O)c1O`, the melting point lay in the range of 146 to 147 °C.

In the case of `CC(C)c1ccc2c(c1)c(SCC1CC1)c(CC(C)(C)C(=O)O)n2Cc1ccc(Cl)cc1`, the melting point fell in the range of 123 to 124 °C.

With `CCOC(=O)C1CCN(CC2(C)Cc3c(C)c(N)c(C)c(C)c3O2)CC1` (configuration not stated), the melting point fell in the range of 74 to 76 °C.

`O=C1N(c2cccc(C(F)(F)F)c2)CC(CCl)C1(Cl)Cl` (configuration not stated) came in with a melting point of 87 to 100 °C.

The compound `CC(=O)CCCCN1CCN(c2ncccn2)CC1` registered a melting point of 44 to 47 °C.

Regarding `COc1ccc(-c2nn3c(S(C)=O)nnc3c3ccccc23)cc1` (configuration not stated), the melting point amounted to 201 °C.

`CC(C)CCCC(C)Cc1nc2c3cc(Br)sc3c3sc(Br)cc3c2nc1CC(C)CCCC(C)C` (configuration not stated) displayed a melting point of 106 to 108 °C.

With `CN(C(=O)OC(C)(C)C)C(S)=NC(=O)OC(C)(C)C`, the melting point is 118 °C.

`CC(=O)Nc1cccc2c1C(=O)c1ccccc1C2=O` returned a melting point of 221 °C.

Turning to `CC1(CCS)C(=O)N2CCCC(C(=O)O)N2C1=O` (configuration not stated), the melting point fell in the range of 165 to 168 °C.

`O=C(O)Cc1ccc(F)cc1Sc1ccc([N+](=O)[O-])cc1` had a melting point of 160 to 164 °C.

As for `O=S(=O)(Nc1ccc(-c2n[nH]c3c2Cc2ccccc2-3)cc1)c1ccccc1`, the melting point was 286 to 288 °C.

For the compound `CSc1ccc(CCCOCCCCCCNCC(O)c2ccc3c(n2)COC(c2ccccc2)O3)cc1` (configuration not stated), the melting point was 70 °C.

In turn, `CCOC(=O)c1cc(OCc2ccccc2)c2nc(C)c(C)n2c1` returned a melting point of 140 to 141 °C.

On to `Cc1cc(Cl)c(C)c(C(=O)O)c1`, for which the melting point was in the range of 168 to 170 °C.

The compound `Cc1cc(SCc2ccc(-c3ccccc3)cc2)ccc1OCC(=O)O` gave a melting point of 138 °C.

`COc1ccc2c(=O)c(-c3ccc(C)cc3)coc2c1OC` gave a melting point of 135 °C.

For the compound `COC(=O)c1nc(N)sc1CCC(C)C`, the melting point fell in the range of 108 to 110 °C.

Consider `CCCn1c(=O)c2[nH]c(-c3cc(C)n(CC(=O)Nc4ccc(Br)cc4)n3)nc2n(CCC)c1=O`, for which the melting point was 270 to 273 °C.

The compound `CN(Cc1cnn(C)c1)c1ccc(Br)cc1C=O` displayed a melting point of 80 to 81 °C.

For the compound `O=C(c1cccc(Cl)c1)c1cc(F)nc2ccccc12`, the melting point came out at 93.2 °C.

Compound `NS(=O)(=O)c1nc2ccc(OC(=O)C=Cc3ccccc3)cc2s1` yielded a melting point of 235 °C.

Regarding `O=S(=O)(C#Cc1ccccc1)c1ccccc1`, the melting point was found to be 73 °C.

On to `CCOP(=O)(OCC)c1ccc2cc(I)cc(-c3cccc4ccccc34)c2n1`, for which the melting point was in the range of 127 to 128 °C.

`Fc1ccc(C=Nc2ccccc2)cc1` gave a melting point of 39 to 40 °C.

`CN(C)c1ncc(-c2ccc(Cl)cc2Cl)c(N)n1`: the melting point came out at 151 °C.

Consider `O=[N+]([O-])c1cc(Br)ccc1-c1ccc(Cl)cc1Cl`, for which the melting point was 112 to 115 °C.

For `CC=Cc1cc(OC)c(OC)cc1Cc1cnc(N)nc1N`, the melting point is 204 to 208 °C.

`CC(SC1COC(c2ccc3cc(C(=O)Nc4ccc(C#N)cc4)ccc3c2)OC1)C(O)(Cn1cncn1)c1ccc(F)cc1F` (configuration not stated) showed a melting point of 114 °C.

In the case of `CN(O)C(=O)NCCc1cccc(Oc2ccccc2)c1`, the melting point lay within 84.5 to 86 °C.

The compound `CC(CCCC(C)(C)O)C1CCC2C3CC=C4CC(O)CCC4(C)C3CCC12C` (configuration not stated) showed a melting point of 168 to 175 °C.

In turn, `Nc1ccc(C(=O)Cn2c(-c3nonc3NCCC(=O)O)nc3ccccc32)cc1` yielded a melting point of 174 to 177 °C.

`Cc1cccc(-c2c3c(cc4ccc(O)cc24)-c2ccc(O)cc2CO3)c1` registered a melting point of 219 to 222 °C.
